These results are taken from publication PMC7340670, “Phase I study of TAS-115, a novel oral multi-kinase inhibitor, in patients with advanced solid tumors” (Investigational New Drugs, 2019).

The test system of one series is advanced solid tumors. As to the kind of experiment: Antitumor effect by RECIST Version 1.1. Format: in vivo, human. On the procedure:
(§1) The secondary objectives were to investigate the PK profile, safety, tolerability, antitumor activity, and pharmacodynamic profile of TAS-115. AEs were graded according to the CTCAE Version 4.03. Response was assessed by radiologic imaging at 6 and 12 weeks from the first dose, and every 12 weeks thereafter. Antitumor effect was evaluated by investigators using Response Evaluation Criteria in Solid Tumors (RECIST) Version 1.1 [17]. If a patient had bone lesions, evaluation was performed using bone scintigraphy and bone scan index (BSI) were calculated by BONENAVI® software (FUJIFILM Toyama Chemical, Co., Ltd., Japan). BSI response was defined as ≥30% reduction in BSI [18]. An exploratory objective was to assess changes in protein levels of soluble MET (sMET), VEGF, and soluble VEGFR2 (sVEGFR2) in plasma, and HGF in serum as pharmacodynamic markers.

The test system of a further series is bone lesions. In words: Bone scintigraphy / bone scan index (BSI) response. The format is in vivo, human. On the procedure:
as §1

The subject of a further series is soluble MET (sMET). As to the kind of experiment: Pharmacodynamic marker: sMET in plasma. The format is in vivo, human. On the procedure:
as §1
For pharmacodynamic analyses, blood samples were collected on Days 1 and 22 (before dosing, each) in part 1, and Days 1 (pre-dosing) and 19 (pre- and post 6 h) in part 2 and the expansion part. Patients provided written informed consent to provide blood samples for exploratory pharmacodynamics assessments.
The planned sample size was up to 90 patients, and it was not based on the formal calculation because of experimental phase I trial. For pharmacodynamics parameters, P values were calculated using the paired t-test for measured values from merged doses. The data cut-off date for the analyses presented in this report was August 19, 2018. This study is registered with Japan Pharmaceutical Information Center Clinical Trial registry, number JapicCTI-132333.

A further series relates to VEGF. As to the kind of experiment: Pharmacodynamic marker: VEGF in plasma. Format: in vivo, human. On the procedure:
as §1
(§2) For pharmacodynamic analyses, blood samples were collected on Days 1 and 22 (before dosing, each) in part 1, and Days 1 (pre-dosing) and 19 (pre- and post 6 h) in part 2 and the expansion part. […]
(§3) The planned sample size was up to 90 patients, and it was not based on the formal calculation because of experimental phase I trial. For pharmacodynamics parameters, P values were calculated using the paired t-test for measured values from merged doses. […]

For a further series, the system named is soluble VEGFR2 (sVEGFR2). In words: Pharmacodynamic marker: sVEGFR2 in plasma. Format: in vivo, human. On the procedure: as §1, §2, §3
A further series relates to recombinant VEGFR2. Details: method as in PMID 24140932. Particulars: read-out: IC50 against recombinant VEGFR2; cited from earlier work.
Series [1] has as its system tumor growth and abnormal bone remodeling. Details: method as in PMID 24140932, PMID 27539855, PMID 27736957. The note with it: cited from earlier work.
In the next series the test system is patients. The arrangement: method as in data on file. Particulars: tablet formulation, ref data on file, cited from earlier work.

Turning to `CNC(=O)c1cc2c(Oc3ccc(NC(=S)NC(=O)Cc4ccccc4)cc3F)ccnc2cc1OC` [TAS-115], the “antitumor effect in a patient with bladder cancer with metastases” value with advanced solid tumors (650 mg 5-on/2-off discontinued at week 7, after discontinuation without further antitumor treatment) is recorded as “the lung metastatic lesions disappeared”. Also, the “complete or partial response by RECIST evaluation” value in the series on advanced solid tumors (all parts) is on record as “no patients who showed complete or partial response”. For the same compound, the “minor tumor shrinkage of target lesions” value in the series on advanced solid tumors (patients determined as having progressive disease (PD)) was “four patients”. Further, the “antitumor effect in a patient with CRPC with multiple bone metastases” value in the series with bone lesions (650 mg 5-on/2-off) is recorded as “notable improvement was observed in the bone scan”. Moreover, in the series on bone lesions (650 mg 5-on/2-off, 6 weeks after the first administration), the “antitumor effect in a patient with epithelioid sarcoma with multiple metastases” value is “marked decrease of hot spots on bone scans and reduction in fluorodesoxyglucose uptake”. The “BSI response rate (≥30% reduction in BSI)” value in the series with bone lesions (patients with bone lesions, 14 of 25) turned out to be 56.0%. Besides, the “change of sMET in plasma” value with soluble MET (sMET) (Day 19, 6 h after administration, part 2 and expansion part, P = .0055) is reported as “significant increase”; in the series with soluble MET (sMET) (Day 19 pre-dose, part 2 and expansion part, P = .0015), “significant increase”; in the series on soluble MET (sMET) (Day 22 in part 1, P = .0031), “significant increase”. Besides, the “change of VEGF” value in the series with VEGF (6 h post-dose on Day 19 compared with pre-dose on Day 19, P = .0844) is “increase”. Besides, the “marked alterations of VEGF from Day 1” value with VEGF (in vivo) is “not observed”. For the same compound, the “change of VEGFR2” value in the series on soluble VEGFR2 (sVEGFR2) (6 h post-dose on Day 19 compared with pre-dose on Day 19, P = .0204) is on record as “decrease”. Further, the “marked alterations of sVEGFR2 from Day 1” value with soluble VEGFR2 (sVEGFR2) (in vivo) was “not observed”. Also, in the series with recombinant VEGFR2, the IC50 was 30 nM. For the same compound, the “antitumor effect in mouse xenograft models” value in series [1] was “potent antitumor effect, inhibiting tumor growth and abnormal bone remodeling”. Besides, the absorption result in the series on patients was “saturated between 100 and 1200 mg”. For the same compound, the “dose-limiting toxicities (DLTs)” value in the series on patients (ten patients, 100, 200, 400, 800, 1200 mg SID and 400 mg BID) is given as “no dose-limiting toxicities (DLTs) were observed”.
